Results as given in ChEMBL document CHEMBL1142568, “Cytotoxic hydroxylated triterpene alcohol ferulates from rice bran” (J Nat Prod, 2005).

Tested on: MCF7
Assay: Cytotoxicity against human MCF7 cells after 72 hrs by MTT assay
Assay type: functional, cell-based
Settings: MCF7, 72 h

Structure (SMILES) | IC50 [µM]
C=C(CC[C@@H](C)[C@H]1CC[C@@]2(C)[C@@H]3CC[C@H]4C(C)(C)[C@@H](OC(=O)/C=C/c5ccc(O)c(OC)c5)CC[C@@]45C[C@@]35CC[C@]12C)C(C)C | 27
COc1cc(/C=C/C(=O)O[C@H]2CC[C@]34C[C@]35CC[C@]3(C)[C@@H]([C@H](C)C/C=C\C(C)(C)O)CC[C@@]3(C)[C@@H]5CC[C@H]4C2(C)C)ccc1O | 79
C=C(C)[C@H](O)CC[C@@H](C)[C@H]1CC[C@@]2(C)[C@@H]3CC[C@H]4C(C)(C)[C@@H](OC(=O)/C=C/c5ccc(O)c(OC)c5)CC[C@@]45C[C@@]35CC[C@]12C | 42
C=C(C)[C@@H](O)CC[C@@H](C)[C@H]1CC[C@@]2(C)[C@@H]3CC[C@H]4C(C)(C)[C@@H](OC(=O)/C=C/c5ccc(O)c(OC)c5)CC[C@@]45C[C@@]35CC[C@]12C | 283
COc1cc(/C=C/C(=O)O[C@H]2CC[C@]34C[C@]35CC[C@]3(C)[C@@H]([C@H](C)CCC=C(C)C)CC[C@@]3(C)[C@@H]5CC[C@H]4C2(C)C)ccc1O [GAMMA ORYZANOL] | 80
